Laboratory results: patent US10500178B2, “LTB4 inhibition to prevent and treat human lymphedema” (The Board of Trustees of the Leland Stanford Junior …, priority 2015, dated 2019)

Key:
[1] = tested on: acquired lymphedema surgically induced in the tails of female C57BL/6J mice; assay: mouse-tail model of acquired lymphedema (tail volume, histology); type: in vivo
Protocol: Surgical induction of experimental lymphatic vascular insufficiency. […] Briefly, a full-thickness circumferential incision of the skin was made 16 mm distal to the base of the mouse tail under anesthesia. Lymphatic trunks were ablated through controlled, limited cautery application under the surgical microscope. For surgical controls (sham animals), the skin incision alone was performed without lymphatic cautery.
(§1) All small molecule drugs were administered through daily intraperitoneal injection.
Tail volume quantitation. Tail-volume measurements at each designated time were quantified by observers blinded to the treatment status of the subjects. Tail volumes were calculated through a digital photographic technique pre-operatively, and post-operatively (d3, d9, d14, d20, and d24), using an Olympus D520 Zoom digital camera at SHQ resolution at a fixed distance from the subject (37 cm), as previously described. Tail volumes were derived from the measurement of the tail diameter using the truncated cone approximation. Microlymphangiography was performed by injecting FITC-dextran (size: 2000 kDa) subcutaneously into mouse tails on post-surgery d24. Images were taken 20 minutes after injection.
Viral particles were mixed with Lipofectamine 2,000 (5% final vol/vol, Invitrogen) before injection, to increase transduction efficiency. qRT-PCR, immunofluorescence and fluorescence in situ hybridization were used to evaluate the silencing efficiency in the mouse tail skin 24d after surgery.

S1P, S1pr1, Sphk1, eNOS = assay: S1P signaling in mouse lymphedema; type: in vivo; conditions: therapy initiated 3d after surgery
Protocol: as §1
Quantification of LTB4, PGE2 and S1P with LC-MS/MS. Briefly, LTB4, PGE2 and S1P were separated from serum with an ACE reverse phase C18 HPLC column. Formic acid 0.5% in 5 mM NH4Ac (A) and formic acid 0.5% in acetonitrile/water (9/1) (B) were used as the mobile phase. Lipids were detected with positive multiple reaction monitor (MRM) scanning at 335.16/194.80 m/z for LTB4, 351.20/189.50 m/z for PGE2 and 330.20/264.40 m/z for S1P using a Sciex API-4000 MS/MS combined with a Shimazu 20A HPLC system. The internal standard of this method was Carbutamide. The quantification limit was 1 ng/ml. The calibration range was 1-2000 ng/ml. The accuracy of the standards and control samples ranged from 88.7% to 120%.

Notch signaling = Notch signaling in mouse lymphedema (NICD, Hey1, EphrinB2); type: in vivo; conditions: WT mice
Protocol: as §1
Western Blot HLECs were lysed with RIPA buffer containing protease and phosphatase inhibitors. Lysates were sonicated briefly and centrifuged. The supernatant was collected and protein concentration was determined by BCA assay. 60 µg of protein were resolved on a 10% SDS-PAGE gel, transferred to a nitrocellulose membrane, blocked with 5% milk and probed with one of the following antibodies: anti-Sphk1 (3297,Cell Signaling); antip-Sphk1(SP1641, ECM Biosciences); anti-NICD (ab8925,Abcam), anti-VEGFR3 (AF743,R&D); anti-DLL4 (ab7280, Abcam). Actin was used to normalize the total protein. […] Images were acquired by Zeiss 710 confocal microscopy and analyzed using ImageJ software.
Quantitative RT-PCR. Quantitative PCR (qRT-PCR) was performed using FastStart SYBR Green (Roche) on a Lightcycler 480. mRNA expression relative to GAPDH mRNA levels were calculated using the delta-delta threshold cycle (ΔΔCT) method. […]

LEC Notch1−/− mice = assay: lymphedema surgery in LEC Notch1-/- mice; type: in vivo, mouse
Excerpt: To generate lymphatic endothelial specific tdTomato reporter mice (Prox1-Cre-ER-tdTomato), Prox1-Cre-ER mice were crossed with tdTomato mice. To create lymphatic endothelial cell specific Notch1 or S1pr1 conditional knockouts, Prox1-Cre-ER mice were crossed with Notch1loxp/loxp or S1pr1loxp/loxp mice. Mice with Prox1-Cre-ER and both target alleles floxed by Prox1-Cre-ER/Notch1^loxp/loxp or Prox1-Cre-ER/S1pr1^loxp/loxp were considered to be either lymphatic endothelial cell-specific Notch1 knockout (LEC Notch1−/−) or S1pr1 knockout (LEC S1pr1^−/−), respectively. Mice expressing Prox1-Cre-ER were used as WT controls. […] Cre-mediated gene knockout efficiency was evaluated by enumerating Notch1- or S1PR1-expressing lymphatic endothelial cells or by qRT-PCR measurements of Notch1 or S1pr1 transcripts in the lymphatic endothelial cells, sorted by flow cytometry. […]
Tail volume quantitation. Tail-volume measurements at each designated time were quantified by observers blinded to the treatment status of the subjects. Tail volumes were calculated through a digital photographic technique pre-operatively, and post-operatively (d3, d9, d14, d20, and d24), using an Olympus D520 Zoom digital camera at SHQ resolution at a fixed distance from the subject (37 cm), as previously described. […]

CC(C)C[C@H](NC(=O)[C@@H](O)[C@H](N)Cc1ccccc1)C(=O)O [bestatin, (2S)-2-[[(2S,3R)-3-amino-2-hydroxy-4-phenylbutanoyl]amino]-4-methylpentanoic acid]
benefit of LTB4 antagonism administered prior to surgery ([1]; therapies administered prior to sham and lymphedema surgery (bestatin, Ly293111 from d0, shLtb4r1 on d(−7))): not beneficial
amelioration of lymphedema (serial tail-volume measurements over 24d) ([1]; therapies started on post-surgery d3 (late LTB4 antagonism)): demonstrated therapeutic amelioration of lymphedema
reversal of more established disease by delayed dosing ([1]; therapy initiated 9d or 14d post-surgically): effective
S1P and S1pr1 levels (S1P, S1pr1, Sphk1, eNOS): restored
Sphk1 and eNOS expression (S1P, S1pr1, Sphk1, eNOS): normalized
Hey1 and EphrinB2 expression in diseased lymphatics (Notch signaling): normalized
NICD nuclear accumulation in mouse lymphedema (Notch signaling): restored
response of lymphedema to therapy (LEC Notch1−/− mice): refractory
mural smooth muscle coverage around collecting lymphatics (LEC Notch1−/− mice; as against WTs): not restituted
